{
  "source": "patent US12527767B2",
  "about": "(priority 2019, dated 2026)",
  "origin": "cited, not measured here",
  "tested_on": "corneal neovascularization",
  "settings": "rabbit, in vivo",
  "data": [
    {"smiles": "O=C1O[C@H]([C@@H](O)CO)C(O)=C1O", "note": "[ascorbic acid]", "values": [
      {"measurement": "corneal neovascularization", "value": "attenuated corneal neovascularization"}
    ]}
  ]
}
